Where two headings read alike, the source gives them in different places.

Data set [1] concerns isolated human adipocytes. Type of data set: cell-based. The following applies: recombinant protein.
Data set [2] is classed as in vivo, human. The following applies: 6-week treatment period.

As for oncostatin-M, the “stimulation of basal lipolysis” value in data set [1] was “+47%”.
On to `CCOc1ccc(Cc2cc([C@@H]3O[C@H](CO)[C@@H](O)[C@H](O)[C@H]3O)ccc2Cl)cc1` [DAPA, dapagliflozin], for which the mild hypoglycemia occurrence entry in data set [2] is on record as “once”. In addition, in the data set with T2DM and NGT subjects (NGT), the “fractional renal extraction of glucose” value amounted to 1.62± 1.4 and the renal glucose uptake turned out to be 0.27 ± 0.08 mg/kg.min. For the same compound, in the data set on T2DM and NGT subjects (T2DM), the “fractional renal extraction of glucose” value is 2.99±1.0 and the renal glucose uptake is 0.347 ± 0.06 mg/kg.min.

(Values after PMC9362525 (Diabetologia, 2022).)
